Assay results: patent US8975263B2, “Phenylxanthene derivatives” (Daiichi Sankyo Company, Limited, priority 2013, dated 2015)

System: C57BL/6J mice
Experiment: Oral glucose tolerance test
Type: in vivo
Settings: male C57BL/6J mice, fasted overnight; oral gavage 10 mg/kg; solvent 0.5% MC; glucose 3 g/kg orally 30 minutes after compound; area under the curve of blood glucose level relative to control group
Procedure: Commercially available mice (C57BL/6J mice; male; 8 to 12 weeks old when used; distributed by Charles River Laboratories Japan, Inc.) were used.
After acclimatization with freely feeding (FR-2, Funabashi Farm Co., Ltd.) for one week or more, the mice were fasted overnight and then used for the test. A 0.5% methylcellulose (Wako Pure Chemical Industries, Ltd.) solution (0.5% MC) containing a test compound at a concentration of 1 mg/ml and a mixed solution (PG:Tween) of propylene glycol (80 v/v %, Nacalai Tesque, Inc.) and Tween 80 (20 v/v %, Nacalai Tesque, Inc.) containing a test compound at a concentration of 2 mg/ml were prepared for administration to the mice. The prepared solution was administered by oral gavage to four or five mice in each group at a dose of 10 mg/kg as the test compound. For a control group, a 0.5% methylcellulose solution (dose: 10 ml/kg) or a mixed solution of propylene glycol and Tween 80 (dose: 5 ml/kg) was orally administered to mice. An oral glucose tolerance test was carried out by administering a glucose solution (Otsuka Glucose Solution 50%; Otsuka Pharmaceutical Factory, Inc.) orally at a dose of 3 g/kg to the mice 30 minutes after administration of the test compound.
Blood was collected from the tail vein of each mouse immediately before administration of the test compound (T0), […] after administration of the test compound (T1), and 30 minutes (T2) and 90 minutes (T3) after oral glucose loading. The blood glucose level was measured using a blood glucose level measuring apparatus (ACCU-CHEK Aviva; Roche Diagnostics, K.K.). The blood glucose level T1 was analyzed as a value obtained 30 minutes after administration of the compound and immediately before glucose loading. According to the following formula, the area under the curve of blood glucose level was calculated, and thereafter, the blood glucose lowering rate (%) was calculated as a value relative to the control group. The area under the curve of blood glucose level=[(blood glucose level T0+blood glucose level T1)×30]÷2+[(blood glucose level T1+blood glucose level T2)×30]÷2+[(blood glucose level T2+blood glucose level T3)×60]÷2 Blood glucose lowering rate(%)=[1−(the area under the curve of blood glucose level for the test compound group/the area under the curve of blood glucose level for the control group)]×100

SMILES | Blood glucose lowering rate (%)
CCc1ccc(-c2ccc(OC)c(C3C4=C(CC(C)(C)CC4=O)OC4=C3C(=O)CC(C)(C)C4)c2)nc1C(=O)NS(C)(=O)=O [Example 46, 3-Ethyl-6-[4-methoxy-3-(3,3,6,6-tetramethyl-1,8-dioxo-2,3,4,5,6,7,8,9-octahydro-1H-xanthen-9-yl)phenyl]-N-(methylsulfonyl)pyridine-2-carboxamide] | 47
CC(C)(C)N.COc1ccc(-c2cc(C)cc(C(=O)NS(C)(=O)=O)n2)c(C)c1C1C2=C(CC(C)(C)CC2=O)OC2=C1C(=O)CC(C)(C)C2 [Example 42, 6-[4-Methoxy-2-methyl-3-(3,3,6,6-tetramethyl-1,8-dioxo-2,3,4,5,6,7,8,9-octahydro-1H-xanthen-9-yl)phenyl]-4-methyl-N-(methylsulfonyl)pyridine-2-carboxamide 2-methylpropan-2-amine salt] | 44
